Reference: ChEMBL document CHEMBL2331428, “Synthesis of tetrazole analogues of phosphonohydroxamic acids: an attempt to improve the inhibitory activity against the DXR” (Bioorg Med Chem Lett, 2013)
Calls of active or inactive are those of the source. No cut-off for these calls is given here.

Legend:
Escherichia coli = test: Antibacterial activity against Escherichia coli assessed as growth inhibition at 400 nmol by disc diffusion method; type: functional, organism-based
[1] = Inhibition of N-terminal His6-tagged Escherichia coli DXR after 2 mins in presence of NADPH

CN(O)C(=O)CCCc1nnn[nH]1
growth inhibition (GI) (Escherichia coli): inactive | IC50 [1]: 0.8 mM

CN(O)C(=O)CCc1nnn[nH]1
growth inhibition (GI) (Escherichia coli): inactive | IC50 [1]: 47 mM

CN(O)C(=O)CCCP(=O)(O)O
IC50 [1]: 4.8e-05 mM

O=CN(O)CCCP(=O)(O)O [FOSMIDOMYCIN]
IC50 [1]: 3.2e-05 mM

CN(O)C(=O)CCCCc1nnn[nH]1
growth inhibition (GI) (Escherichia coli): inactive | IC50 [1]: 4.9 mM

O=C(CCCCc1nnn[nH]1)NO
growth inhibition (GI) (Escherichia coli): inactive | IC50 [1]: 44 mM
